# Assays:
# Test in all cases: relative viability (nuclei count vs DMSO), 5 days (fraction); higher = more cells survive
# XMD13-2 + Olaparib = compound: C1CC1C(=O)NC2=NNC3=C2C=CC(=C3)C4=CC(=CC=C4)C(=O)NC5CC5 [XMD13-2] + O=C(c1cc(Cc2n[nH]c(=O)c3ccccc23)ccc1F)N1CCN(C(=O)C2CC2)CC1 [Olaparib] (partner 8 µM)
# How it was run: (§1)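 Values are medians from duplicate plates. Each reflects relative viability, defined as the nuclei count of treated wells over that of vehicle wells. Lung cancer cell lines in 1536-well plates were pin-tool dosed one day after seeding with one drug alone or with a fixed anchor-drug dose plus five library-drug doses (not always all listed) in √10 steps, then fixed, stained and imaged at 4× after 5 days.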
# Dasatinib + Crizotinib = compound: Cc1nc(Nc2ncc(C(=O)Nc3c(C)cccc3Cl)s2)cc(N2CCN(CCO)CC2)n1 [Dasatinib] + C[C@@H](Oc1cc(-c2cnn(C3CCNCC3)c2)cnc1N)c1c(Cl)ccc(F)c1Cl [Crizotinib] (partner 1 µM)
# How it was run: as §1
# ALW-II-49-7 + Pictilisib = compound: Cc1ccc(C(=O)Nc2cccc(C(F)(F)F)c2)cc1Nc1cncc(C(N)=O)c1 [ALW-II-49-7] + CS(=O)(=O)N1CCN(Cc2cc3nc(-c4cccc5[nH]ncc45)nc(N4CCOCC4)c3s2)CC1 [Pictilisib] (partner 1 µM)
# How it was run: as §1
# Dasatinib + Lapatinib = compound: Cc1nc(Nc2ncc(C(=O)Nc3c(C)cccc3Cl)s2)cc(N2CCN(CCO)CC2)n1 [Dasatinib] + CS(=O)(=O)CCNCc1ccc(-c2ccc3ncnc(Nc4ccc(OCc5cccc(F)c5)c(Cl)c4)c3c2)o1 [Lapatinib] (partner 2 µM)
# How it was run: as §1
cell line,measurement,setting,value
UMC-11,relative viability,XMD13-2 + Olaparib; first compound 0.05 µM,0.528
same,relative viability,XMD13-2 + Olaparib; first compound 0.1581 µM,0.407
same,relative viability,XMD13-2 + Olaparib; first compound 0.5 µM,0.39
same,relative viability,XMD13-2 + Olaparib; first compound 1.581 µM,0.364
same,relative viability,XMD13-2 + Olaparib; first compound 5 µM,0.318
same,relative viability,Dasatinib + Crizotinib; first compound 0.005 µM,0.537
same,relative viability,Dasatinib + Crizotinib; first compound 0.01581 µM,0.389
same,relative viability,Dasatinib + Crizotinib; first compound 0.05 µM,0.359
same,relative viability,Dasatinib + Crizotinib; first compound 0.1581 µM,0.258
same,relative viability,Dasatinib + Crizotinib; first compound 0.5 µM,0.242
same,relative viability,ALW-II-49-7 + Pictilisib; first compound 0.08 µM,0.917
same,relative viability,ALW-II-49-7 + Pictilisib; first compound 0.253 µM,0.807
same,relative viability,ALW-II-49-7 + Pictilisib; first compound 2.53 µM,1.06
same,relative viability,ALW-II-49-7 + Pictilisib; first compound 8 µM,0.814
same,relative viability,Dasatinib + Lapatinib; first compound 0.005 µM,0.877
same,relative viability,Dasatinib + Lapatinib; first compound 0.01581 µM,0.702
same,relative viability,Dasatinib + Lapatinib; first compound 0.05 µM,0.835
same,relative viability,Dasatinib + Lapatinib; first compound 0.1581 µM,0.333
same,relative viability,Dasatinib + Lapatinib; first compound 0.5 µM,0.377

# Source: the supplement of paper PMC10307832
